Results from patent US20070134709A1, “Usages of MTHFR gene polymorphisms in predicting homocysteine level, disease risk, and treatment effects and related methods and kit” (priority 2005, published 2007).

Assays:
hypertensive subjects = test: Change in plasma Hcy level after 57 days' treatment, hypertensive subjects grouped by MTHFR C677T genotype; type: in vivo, human; conditions: for Significant change in Hcy (number of subjects): (day 57 − day 0)/day 0 ≧10%; for Non-significant change in Hcy (number of subjects): relative change below 10; for β(SE) of change in Hcy level: multiple linear regression adjusted for sex, age, BMI, smoking, drinking, baseline Hcy; for Mean change in Hcy level: plasma, Day 57 − Day 0
Experimental: We conducted a clinical epidemiology study, in which we classified hypertensive subjects into 677CC, 677CT, and 677TT groups based on the genotypes of MTHFR C677T polymorphism. Each subject was treated with Enalapril alone or combined with folate for 57 consecutive days. Pre-treatment and post-treatment plasma Hcy level, blood pressure (SBP/DBP), and urine albumin were measured. The major findings are summarized as follow. […]

[1] = cited from earlier work
hypertensive patients [2] = conditions: oral, single daily fixed dosage of 10 mg; 444 hypertensive patients; cited from earlier work
[3] = target: angiotensin converting enzyme I (Homo sapiens, UniProt P12821); conditions: cited from earlier work
angiotensin converting enzyme I, sequence (P12821 30-1306): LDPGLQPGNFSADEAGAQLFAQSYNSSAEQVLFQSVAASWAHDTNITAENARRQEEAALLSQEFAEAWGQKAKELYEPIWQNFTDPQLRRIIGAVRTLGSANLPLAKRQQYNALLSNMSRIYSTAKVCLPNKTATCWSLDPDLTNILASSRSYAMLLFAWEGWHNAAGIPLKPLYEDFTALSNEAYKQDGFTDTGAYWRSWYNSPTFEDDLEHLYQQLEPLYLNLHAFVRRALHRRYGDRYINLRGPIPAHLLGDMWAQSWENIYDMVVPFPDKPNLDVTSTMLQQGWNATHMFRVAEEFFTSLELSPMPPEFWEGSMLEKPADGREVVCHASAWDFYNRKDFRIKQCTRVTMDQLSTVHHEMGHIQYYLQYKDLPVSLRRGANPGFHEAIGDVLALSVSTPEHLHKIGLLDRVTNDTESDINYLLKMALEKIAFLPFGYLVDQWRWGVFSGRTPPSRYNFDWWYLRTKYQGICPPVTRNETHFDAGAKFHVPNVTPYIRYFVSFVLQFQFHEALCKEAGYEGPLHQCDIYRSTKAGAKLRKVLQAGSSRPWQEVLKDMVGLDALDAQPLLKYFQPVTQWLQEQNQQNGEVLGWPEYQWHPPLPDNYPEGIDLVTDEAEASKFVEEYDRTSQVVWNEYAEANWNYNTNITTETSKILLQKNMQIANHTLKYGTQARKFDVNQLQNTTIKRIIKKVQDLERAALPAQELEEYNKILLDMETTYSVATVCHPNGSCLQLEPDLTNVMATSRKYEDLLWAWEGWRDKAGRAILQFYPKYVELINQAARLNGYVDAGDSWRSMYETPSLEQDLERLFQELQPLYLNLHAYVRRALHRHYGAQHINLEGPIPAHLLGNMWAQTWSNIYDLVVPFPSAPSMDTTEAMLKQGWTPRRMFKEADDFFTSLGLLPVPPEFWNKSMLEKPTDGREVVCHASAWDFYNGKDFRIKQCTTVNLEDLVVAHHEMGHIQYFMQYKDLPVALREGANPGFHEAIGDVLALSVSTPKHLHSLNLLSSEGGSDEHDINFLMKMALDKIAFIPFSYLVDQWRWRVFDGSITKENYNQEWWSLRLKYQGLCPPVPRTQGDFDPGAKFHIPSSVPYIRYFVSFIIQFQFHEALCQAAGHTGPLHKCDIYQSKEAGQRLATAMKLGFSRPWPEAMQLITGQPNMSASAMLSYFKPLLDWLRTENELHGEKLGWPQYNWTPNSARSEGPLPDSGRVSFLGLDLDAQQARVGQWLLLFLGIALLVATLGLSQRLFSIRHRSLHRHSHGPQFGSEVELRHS

hypertensive patients [4] = test: Change in plasma Hcy level after 57 days' treatment, hypertensive patients grouped by MTHFR A1298C genotype; type: in vivo, human; conditions: for β(SE) of change in Hcy level: adjusted for sex, age, BMI, smoking, drinking, baseline Hcy; for Mean change in Hcy level: plasma, Day 57 − Day 0
Experimental: In our clinical epidemiology study, we classified hypertensive patients into 1298AA, 1298AC, and 1298CC groups based on the genotype of MTHFR A1298C polymorphism. Each subject was treated with ACEI medicine alone or combined with folate for 57 consecutive days. Pre-treatment and post-treatment plasma Hcy level, blood pressure (SBP/DBP), and urine albumin were measured.

subjects = test: Liver injury as change in liver enzymes (ALT, AST) after 57 days' treatment, subjects grouped by MTHFR C677T genotype; type: in vivo, human; conditions: for Significant change in ALT (number of subjects): (ALT day 57-ALT day 0)/ALT day 0>15%
Experimental: In our clinical epidemiology study, we classified subjects into 677CC, 677CT, and 677TT groups based on the MTHFR C677T genotype. Each subject was treated with ENAZEPRIL alone or combined with folate for 57 consecutive days. Pre-treatment and post-treatment liver enzymes (ALT and AST) were measured. The MTHFR C677T polymorphism can affect the degree of liver injury induced by ACEI medicine combined with folate. […] Remarkably, given the combination therapy, Subjects with MTHFR 677CC genotype tend to have greater increase in ALT and AST, but subjects with MTHFR 677TT genotype tend to have less increase in ALT and AST. Subjects with MTHFR 677CT genotype fell in-between.
In our clinical epidemiology study, we classified subjects into 677CC, 677CT, and 677TT groups based on the MTHFR C677T genotype. Each subject was treated with ENAZEPRIL alone or combined with folate for 57 consecutive days. Pre-treatment and post-treatment liver enzymes (ALT and AST) were measured.

[5] = Table 19, 677CC, day 57 minus day 0
[6] = Table 19, 677CT, day 57 minus day 0
[7] = Table 19, 677TT, day 57 minus day 0

CCOC(=O)[C@H](CCc1ccccc1)N[C@@H](C)C(=O)N1CCC[C@H]1C(=O)O [ENALAPRIL, Enalapril]
Significant change in Hcy (number of subjects) (hypertensive subjects; 677CC + CT): 12 | Non-significant change in Hcy (number of subjects) (hypertensive subjects; 677CC + CT): 39 | Subjects with significant change in Hcy level (hypertensive subjects; 677CT or CC): 23.3% | β(SE) of change in Hcy level (hypertensive subjects; 677CT vs 677CC): 0.7 (1.3) | Subjects with significant change in Hcy level (hypertensive subjects; 677TT genotype): 38.5% | β(SE) of change in Hcy level (hypertensive subjects; 677TT vs 677CC): 3.9 (1.3) | Significant change in Hcy (number of subjects) (hypertensive subjects; 677TT): 10 | Non-significant change in Hcy (number of subjects) (hypertensive subjects; 677TT): 16 | Plasma Hcy level after treatment (hypertensive subjects; Enalapril alone for 57 days): increased level of plasma Hcy | Mean change in Hcy level (hypertensive subjects; MTHFR 677CC): -0.5 µmol/L | Mean change in Hcy level (hypertensive subjects; MTHFR 677CT): 1.2 µmol/L | Mean change in Hcy level (hypertensive subjects; MTHFR 677TT): 2.7 µmol/L | Significant change in Hcy (number of subjects) (hypertensive subjects; Total, all genotypes): 22 | Non-significant change in Hcy (number of subjects) (hypertensive subjects; Total, all genotypes): 55 | Subjects with significant change in Hcy level (hypertensive subjects; overall (22/77)): 28.6% | Half-time ([1]; in vivo): 11 h | Duration of blood pressure lowering effect ([1]; regular dosage): more than 24 hours

CCOC(=O)[C@H](CCc1ccccc1)N[C@H]1CCc2ccccc2N(CC(=O)O)C1=O [Benazepril]
Change in diastolic blood pressure, TT genotype vs CT or CC genotype (hypertensive patients [2]): significantly higher

C[C@H](N[C@@H](CCc1ccccc1)C(=O)O)C(=O)N1CCC[C@H]1C(=O)O [Enalaprilat]
Inhibition of angiotensin converting enzyme I compared with enalapril [3]: powerful effect on inhibiting angiotensin converting enzyme I than enalapril

CCOC(=O)[C@H](CCc1ccccc1)N[C@@H](C)C(=O)N1CCC[C@H]1C(=O)O [ENAZEPRIL]
β(SE) of change in Hcy level (hypertensive patients [4]; 1298AA vs 1298CC): 2.3 (1.8) | β(SE) of change in Hcy level (hypertensive patients [4]; 1298AC vs 1298CC): 0.2 (1.5) | Plasma Hcy level after treatment (hypertensive patients [4]; ENAZEPRIL alone for 57 days): significantly increased level of plasma Hcy | Mean change in Hcy level (hypertensive patients [4]; MTHFR 1298AA): 3.0 µmol/L | Mean change in Hcy level (hypertensive patients [4]; MTHFR 1298AC): 1.2 µmol/L | Mean change in Hcy level (hypertensive patients [4]; MTHFR 1298CC): 1.1 µmol/L | Insignificant change in ALT (number of subjects) (subjects; 677CC): 20 | Significant change in ALT (number of subjects) (subjects; 677CC): 32 | Insignificant change in ALT (number of subjects) (subjects; 677TT): 34 | Significant change in ALT (number of subjects) (subjects; 677TT): 14 | Mean change in ALT (subjects; [5]): 13.8 U/L | Mean change in AST (subjects; [5]): 7.1 U/L | Mean change in ALT (subjects; [6]): 10.1 U/L | Mean change in AST (subjects; [6]): 5.2 U/L | Mean change in ALT (subjects; [7]): 7.3 U/L | Mean change in AST (subjects; [7]): 0.3 U/L | Mean change in ALT (subjects; Table 20, 677CC, Day57 − Day0): 17.92 U/L | Mean change in AST (subjects; Table 20, 677CC, Day57 − Day0): 4.95 U/L | Mean change in ALT (subjects; Table 20, 677CT, Day57 − Day0): 10.15 U/L | Mean change in AST (subjects; Table 20, 677CT, Day57 − Day0): 5.81 U/L | Mean change in ALT (subjects; Table 20, 677TT, Day57 − Day0): 9.4 U/L | Mean change in AST (subjects; Table 20, 677TT, Day57 − Day0): 0.08 U/L | Insignificant change in ALT (number of subjects) (subjects; Total (CC and TT)): 54 | Significant change in ALT (number of subjects) (subjects; Total (CC and TT)): 46 | Increase in ALT and AST (subjects; subjects with MTHFR 677CC genotype, Enazepril alone): greatest increase in ALT and AST
